Patent publication US8716276B2, “Thiophenyl and pyrrolyl azepines as serotonin 5-HT2C receptor ligands and uses thereof” (Athersys, Inc., priority 2006, dated 2014)
pEC50: −log10 of the molar value.

Biological target: T1, human 5HT2c receptor (VNV Isoform) (Homo sapiens, UniProt P28335, I156V/I160V)
T1 construct: expressed in transfected cells; host or cells: HEK 293 EBNA
T1 sequence (P28335 33-458 I156V/I160V): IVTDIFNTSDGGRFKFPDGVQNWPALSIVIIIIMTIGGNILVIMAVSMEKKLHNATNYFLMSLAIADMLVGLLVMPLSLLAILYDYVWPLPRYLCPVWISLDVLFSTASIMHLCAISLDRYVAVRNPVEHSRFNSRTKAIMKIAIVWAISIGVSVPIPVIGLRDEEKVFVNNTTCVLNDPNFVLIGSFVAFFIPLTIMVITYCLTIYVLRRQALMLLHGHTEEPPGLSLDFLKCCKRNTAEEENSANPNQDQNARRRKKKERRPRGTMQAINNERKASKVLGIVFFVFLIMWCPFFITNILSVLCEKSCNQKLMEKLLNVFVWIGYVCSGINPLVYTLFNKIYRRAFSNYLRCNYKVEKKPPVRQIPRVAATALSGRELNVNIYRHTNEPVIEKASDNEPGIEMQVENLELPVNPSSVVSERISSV
Test: Calcium mobilization (FLIPR) 5HT2c receptor agonist assay
Type: cell-based
Settings: HEK 293 EBNA cells expressing human 5HT2c receptor (VNV isoform), agonist-induced calcium fluorescence, read-out: 5-HT2c EC50 (hVNV)
Experimental: The following procedure was utilized to evaluate representative compounds of the present invention as 5HT2c, receptor agonists.
5HT was utilized as a positive control. Ligand-induced calcium release and consequent fluorescence was measured on a Fluorometric Imaging Plate Reader (FLIPR, Molecular Device, CA).
All data were analyzed by nonlinear least square curve fitting using Prism 4.0 software. Agonist stimulation of calcium-induced fluorescence in FLIPR was fitted to sigmoidal dose response using equation Y=Bottom+(Top−Bottom)/(1+10^((Log EC50−X))), where X is the logarithm of concentration of compounds and Y is the fluorescent response.

| SMILES | pEC50 |
| --- | --- |
| CC1CNCCc2sc(C(=O)C(C)(C)C)c(Br)c21 (single isomer, unassigned) [Example 12, 1-(3-Bromo-4-methyl-5,6,7,8-tetrahydro-4H-thieno[2,3-d]azepin-2-yl)-2,2-dimethyl-propan-1-one] | > 7.00 |
| O=S(=O)(c1ccccc1)c1cc2c(s1)CCNCC2 [Example 3, 2-Benzenesulfonyl-5,6,7,8-tetrahydro-4H-thieno[2,3-d]azepine] | > 8.00 |
| CC1Cc2cc(Br)sc2CCN1 (racemic) [Example 15, (R,S)-2-Bromo-5-methyl-5,6,7,8-tetrahydro-4H-thieno[2,3-d]azepine] | > 6.00 |
| FC(F)(F)Cc1sc2c3c1CCC3CNCC2 (racemic) [Example 13, (R,S)-2-(2,2,2-Trifluoro-ethyl)-4,4a,5,6,7,8-hexahydro-3H-1-thia-6-aza-cyclopenta[cd]azulene] | > 7.00 |
| CC(C)(C)C(=O)c1cc2c(s1)CCNCC2 [Example 18, 2,2-Dimethyl-1-(5,6,7,8-tetrahydro-4H-thieno[2,3-d]azepin-2-yl)-propan-1-one] | > 8.00 |
| CC(C)(C)C(=O)c1sc2c(c1Cl)CCNCC2 [Example 19, 1-(3-Chloro-5,6,7,8-tetrahydro-4H-thieno[2,3-d]azepin-2-yl)-2,2-dimethyl-propan-1-one] | > 7.00 |
| Cc1c(C(=O)C(C)(C)C)sc2c1CCNCC2 [Example 1, 2,2-Dimethyl-1-(3-methyl-5,6,7,8-tetrahydro-4H-thieno[2,3-d]azepin-2-yl)-propan-1-one] | > 7.00 |
| FC(F)(F)Cc1sc2c(c1Br)CCNCC2 [Example 2, 3-Bromo-2-(2,2,2-trifluoro-ethyl)-5,6,7,8-tetrahydro-4H-thieno[2,3-d]azepine] | > 8.00 |
| CC1(C)CC(C(F)(F)F)c2sc3c(c21)CCNCC3 (racemic) [Example 7, (R,S)-3,3-Dimethyl-1-trifluoromethyl-1,2,3,4,5,6,7,8-octahydro-9-thia-6-aza-cyclopenta[a]azulene] | > 6.00 |
| CCS(=O)(=O)c1cc2c(s1)CCNCC2 [Example 5, 2-Ethanesulfonyl-5,6,7,8-tetrahydro-4H-thieno[2,3-d]azepine] | > 8.00 |
| CC1CNCCc2sc(CC(F)(F)F)c(Br)c21 (single isomer, unassigned) [Example 9, 3-Bromo-4-methyl-2-(2,2,2-trifluoro-ethyl)-5,6,7,8-tetrahydro-4H-thieno[2,3-d]azepine] | > 7.00 |
| CC1CNCCc2sc3c(c21)C(C)(C)CC3C(F)(F)F (single isomer, unassigned) [17 Diastereomer 2] | > 6.00 |
| CC1CNCCc2sc3c(c21)CCC3C(F)(F)F (single isomer, unassigned) [Example 16, 4-Methyl-1-trifluoromethyl-1,2,3,4,5,6,7,8-octahydro-9-thia-6-aza-cyclopenta[a]azulene] | > 7.00 |
| FC(F)(F)C1CCc2c1sc1c2CCNCC1 (racemic) [Example 6, (R,S)-1-Trifluoromethyl-1,2,3,4,5,6,7,8-octahydro-9-thia-6-aza-cyclopenta[a]azulene] | > 8.00 |
| CC(c1cc2c(s1)CCNCC2)C(F)(F)F (racemic) [Example 4, (R,S)-2-(2,2,2-Trifluoro-1-methyl-ethyl)-5,6,7,8-tetrahydro-4H-thieno[2,3-d]azepine] | > 8.00 |
| CCS(=O)(=O)c1sc2c(c1C)C(C)CNCC2 (single isomer, unassigned) [Example 10, 2-Ethanesulfonyl-3,4-dimethyl-5,6,7,8-tetrahydro-4H-thieno[2,3-d]azepine] | > 7.00 |
| CC1(C)CC2CNCCc3sc(Br)c1c32 (racemic) [Example 14, (R,S)-2-Bromo-3,3-dimethyl-4,4a,5,6,7,8-hexahydro-3H-1-thia-6-aza-cyclopenta[cd]azulene] | > 6.00 |
| CC1CNCCc2sc3c(c21)C(C)(C)CC3C(F)(F)F (single isomer, unassigned) [17 Diastereomer 1] | > 7.00 |
| CC(C)(c1cc2c(s1)CCNCC2)C(F)(F)F [Example 8, 2-(2,2,2-Trifluoro-1,1-dimethyl-ethyl)-5,6,7,8-tetrahydro-4H-thieno[2,3-d]azepine] | > 7.00 |
| CC1CNCCc2sc(C(=O)C(C)(C)C)cc21 (racemic) [Example 11, (R,S)-2,2-Dimethyl-1-(4-methyl-5,6,7,8-tetrahydro-4H-thieno[2,3-d]azepin-2-yl)-propan-1-one] | > 7.00 |
